Key:
Experiment in all cases: AUC of viability dose-response curve (% viability x log10 dose units); higher = less sensitive
Conditions in all cases: 48 h
P12-Ichikawa = tested on: P12-Ichikawa
Outline: (§1)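 Over 48 h at 37°C, leukemia cells in 1536-well plates (500 or 1000 cells/well), adapted to each medium, received library compounds in DMSO at 11 threefold doses from 47 μM to 0.79 nM. CellTiter-Glo One luminescence, normalised per plate to DMSO and cell-free wells, was fitted by a four-parameter log-logistic function of log10 dose. The area under the curve was then integrated by trapezoidal rule, after scaling curves above full viability and removing those that failed quality control.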

NOMO1 = tested on: NOMO1
Outline: as §1

SEM cells = tested on: SEM cells
Outline: as §1

[1] = RPMI 5 mM glucose + 10% dialyzed FBS

Row | SMILES | AUC of viability dose-response curve (P12-Ichikawa; HPLM + 10% dialyzed FBS) | AUC of viability dose-response curve (P12-Ichikawa; RPMI 5 mM glucose + 10% FBS) | AUC of viability dose-response curve (P12-Ichikawa; [1]) | AUC of viability dose-response curve (NOMO1; HPLM + 10% dialyzed FBS) | AUC of viability dose-response curve (NOMO1; RPMI 5 mM glucose + 10% FBS) | AUC of viability dose-response curve (NOMO1; [1]) | AUC of viability dose-response curve (SEM cells; HPLM + 10% dialyzed FBS) | AUC of viability dose-response curve (SEM cells; RPMI 5 mM glucose + 10% FBS) | AUC of viability dose-response curve (SEM cells; [1])
1 | CN(C)[C@H]\1[C@@H]2[C@@H](O)[C@@H]\3C(=C)C4=C(C(=CC=C4)O)C(=O)C3=C(\O)[C@@]2(O)C(=O)\C(=C1O)C(N)=O | 465 | 468 | 472 | 449 | 462 | 474 | 452 | 463 | 466
2 | C[C@@H]1CN(CC(=O)N2CC(C)(C)c3ncc(Cc4ccc(F)cc4)cc32)[C@@H](CN2CCOC[C@H]2C)CN1 | 463 | 449 | 477 | 442 | 456 | 459 | 448 | 402 | 465
3 | CN(C)c1ccc(C(=O)NCCCCCCC(=O)NO)cc1 | 329 | 330 | 317 | 358 | 343 | 354 | 311 | 314 | 316
4 | Nc1ccc([S+](=O)([O-])Nc2ccccn2)cc1 | 467 | 439 | 445 | 470 | 467 | 464 | 438 | 468 | 448
5 | CCc1cc(/C(C)=N/OCc2ccc(C3CCCCC3)c(C(F)(F)F)c2)ccc1CN1CC(C(=O)O)C1 | 418 | 414 | 414 | 385 | 418 | 420 | 455 | 452 | 463
6 | CC(C)[C@H](CO)Nc1nc(Nc2ccc(C(=O)O)c(Cl)c2)c2ncn(C(C)C)c2n1 | 432 | 414 | 425 | 428 | 445 | 462 | 428 | 412 | 462
7 | O=C(C1CCCCC1)N1CC(=O)N2CCc3ccccc3C2C1 (configuration not stated) | 386 | 385 | 369 | 445 | 466 | 452 | 434 | 407 | 406
8 | O=C(Oc1ccc([N+](=O)[O-])cc1)N1CCN(Cc2cccc(Oc3ccccc3)c2)CC1 | 468 | 475 | 457 | 469 | 460 | 451 | 433 | 453 | 468
9 | CN(C)CCC=C1C2=C(C=CC=C2)\C=C/C3=C1C=CC=C3 | 449 | 401 | 469 | 418 | 440 | 438 | 459 | 438 | 466
10 | CC(Oc1ccc(O)cc1)(P(=O)(O)O)P(=O)(O)O | 434 | 401 | 418 | 415 | 399 | 405 | 427 | 420 | 421
11 | CC1=C(C)C2=C(S1)[N]3C(=NN=C3[C@H](CC(=O)OC(C)(C)C)/N=C2/C4=CC=C(Cl)C=C4)C | 311 | 313 | 305 | 292 | 286 | 296 | 249 | 264 | 251
12 | Cn1cc(-c2ccc3ncc(Cc4ccc5ncccc5c4)n3n2)cn1 | 472 | 474 | 470 | 468 | 477 | 472 | 450 | 452 | 450
13 | CC1(C)CC(=O)c2c(C(F)(F)F)nn(-c3ccc(C(N)=O)c(NC4CCC(OC(=O)CN)CC4)c3)c2C1 (configuration not stated) | 346 | 297 | 308 | 292 | 273 | 281 | 288 | 290 | 276
14 | COc1ccc([C@@H]2CNC(=O)C2)cc1OC1CCCC1 | 466 | 456 | 458 | 452 | 467 | 468 | 454 | 458 | 459
15 | Nc1cccc(-c2cc3c(Oc4cccc(O)c4)ncnc3[nH]2)c1 | 423 | 431 | 436 | 445 | 463 | 460 | 414 | 415 | 414
16 | CCOC(=O)c1ncn2c1CN(C)C(=O)c1cc(F)ccc1-2 | 427 | 432 | 424 | 433 | 432 | 465 | 421 | 420 | 422
17 | Clc1ccc(COC(Cn2ccnc2)c2ccc(Cl)cc2Cl)cc1 (configuration not stated) | 477 | 463 | 452 | 473 | 473 | 470 | 408 | 468 | 431
18 | Cc1nc2c([nH]1)-c1ccccc1N(C(=O)c1ccc(NC(=O)c3ccccc3-c3ccccc3)cc1)CC2 | 466 | 467 | 471 | 470 | 444 | 468 | 451 | 457 | 449

Source: the supplement of paper PMC11451515
